Experimental data taken from publication PMC8752759, “GSNOR regulates ganoderic acid content in Ganoderma lucidum under heat stress through S-nitrosylation of catalase” (Communications Biology, 2022).

Columns and labels:
Assay type in all cases: biochemical
CAT (catalase) [1] = target: T1, CAT (catalase) (Ganoderma lucidum, UniProt A0A223M0M1, C419S); experiment: biotin-switch immunoblot; CAT activity by H2O2 decomposition at […] nm; conditions: covalent; S-nitrosylation; room temperature, dark, 60 min
T1 construct: recombinant, pColdI vector, His-tagged, E. coli BL21(DE3), Ni-NTA purified; 6 cysteine residues

CAT (catalase) [2] = target: T2, CAT (catalase) (Ganoderma lucidum, UniProt A0A223M0M1); experiment: biotin-switch immunoblot, LC-MS/MS of sites; CAT activity by H2O2 decomposition at […] nm; conditions: covalent; S-nitrosylation at Cys401, Cys642, Cys653; room temperature, dark, 60 min; activating
T2 construct: recombinant, pColdI vector, His-tagged, E. coli BL21(DE3), Ni-NTA purified; 6 cysteine residues

CAT (catalase) [3] = target: T3, CAT (catalase) (Ganoderma lucidum, UniProt A0A223M0M1, C671S); experiment: biotin-switch immunoblot; CAT activity by H2O2 decomposition at […] nm; conditions: covalent; S-nitrosylation; room temperature, dark, 60 min
T3 construct: recombinant, pColdI vector, His-tagged, E. coli BL21(DE3), Ni-NTA purified; 6 cysteine residues

CAT (catalase) [4] = target: T4, CAT (catalase) (Ganoderma lucidum, UniProt A0A223M0M1, C660S); experiment: as above; conditions: covalent; S-nitrosylation; room temperature, dark, 60 min
T4 construct: recombinant, pColdI vector, His-tagged, E. coli BL21(DE3), Ni-NTA purified; 6 cysteine residues
T4 sequence (A0A223M0M1 entry or part of it C660S): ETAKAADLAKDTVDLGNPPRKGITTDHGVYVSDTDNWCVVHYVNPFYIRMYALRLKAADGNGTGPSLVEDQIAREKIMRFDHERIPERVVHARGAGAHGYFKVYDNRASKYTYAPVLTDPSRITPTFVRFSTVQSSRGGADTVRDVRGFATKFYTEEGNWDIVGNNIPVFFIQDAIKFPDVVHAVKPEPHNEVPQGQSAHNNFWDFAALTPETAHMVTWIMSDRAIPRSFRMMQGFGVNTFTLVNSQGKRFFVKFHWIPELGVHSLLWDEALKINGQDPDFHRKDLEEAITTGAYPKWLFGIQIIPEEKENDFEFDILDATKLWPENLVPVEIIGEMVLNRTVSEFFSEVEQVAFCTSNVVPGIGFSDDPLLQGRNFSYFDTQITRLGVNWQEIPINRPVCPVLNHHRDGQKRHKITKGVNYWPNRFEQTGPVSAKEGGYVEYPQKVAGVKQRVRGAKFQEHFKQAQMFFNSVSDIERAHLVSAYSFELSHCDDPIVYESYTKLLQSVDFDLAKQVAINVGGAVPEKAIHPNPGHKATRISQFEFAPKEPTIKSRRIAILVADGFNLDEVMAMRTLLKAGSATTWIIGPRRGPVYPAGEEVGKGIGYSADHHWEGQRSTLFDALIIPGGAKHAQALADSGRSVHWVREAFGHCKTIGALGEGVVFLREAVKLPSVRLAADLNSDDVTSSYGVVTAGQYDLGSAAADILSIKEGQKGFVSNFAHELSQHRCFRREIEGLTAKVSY

T3 sequence (A0A223M0M1 entry or part of it C671S): as the sequence (A0A223M0M1 entry or part of it C660S) above, with S642C, C653S counted along it
T1 sequence (A0A223M0M1 entry or part of it C419S): as the sequence (A0A223M0M1 entry or part of it C660S) above, with C401S, S642C counted along it
T2 sequence (A0A223M0M1 entry or part of it): as the sequence (A0A223M0M1 entry or part of it C660S) above, with S642C counted along it

Q: What does the source list for `N[C@@H](CCC(=O)N[C@@H](CSN=O)C(=O)NCC(=O)O)C(=O)O` [GSNO, S-nitrosoglutathione]?
A: biotin-switch immunoblot; CAT activity by H2O2 decomposition at 240 nm (CAT (catalase) [1]): The C401S, C642S, and C653S single mutants; biotin-switch immunoblot, LC-MS/MS of sites; CAT activity by H2O2 decomposition (CAT (catalase) [2]): CAT was S-nitrosylated, which was induced by GSNO; biotin-switch immunoblot; CAT activity by H2O2 decomposition at 240 nm (CAT (catalase) [3]): The C401S, C642S, and C653S single mutants; biotin-switch immunoblot; CAT activity by H2O2 decomposition at 240 nm (CAT (catalase) [4]): The C401S, C642S, and C653S single mutants
